Test results published in US20250025495A1, “Diagnosis and Treatment of Metabolic Syndrome with Magnesium Compositions” (priority 2023, published 2025).

Key:
[1] = gut dysbiosis induced with lectin-containing raw red kidney beans (RRKB); assay type: in vivo; settings: by inducing heat shock factor 70
[2] = burn patients, intravenous; cited from earlier work
[3] = tested on: sulfate reducing bacteria (SRB); assay: SRB growth and hydrogen sulfide production with MgO; assay type: cell-based
Procedure: Total counts were obtained and represented as cells per ml. To account for the heavy right skew of the response variable, the analysis was conducted using a shifted log-transformation of the data and 90% confidence intervals were constructed using Cox's method. […] 90% confidence intervals were constructed using a parametric Bootstrap procedure based on a zero-inflated log-normal model where the parameters were estimated using maximum likelihood. The relationship between MgO dose level and the response (SRB Growth and H2S Concentration) was assessed with an F test based on a simple linear model. Data is presented as Mean±SEM. In this second in-vitro experiment, bacteria was grown with varying doses of MgO (0.5-2.0 mg/ml) in liquid media at 37° for 24 hours (n=3). Total counts were obtained and represented as cells per ml (FIG. 2A). To account for the heavy right skew of the response variable, the analysis was conducted using a shifted log-transformation of the data and 90% confidence intervals were constructed using Cox's method. Hydrogen sulfide production of SRB grown for 24 hours with varying concentrations of MgO as represented as parts per billion (ppb) (FIG. 2B). […] The relationship between MgO dose level and the response (SRB Growth and H2S Concentration) was assessed with an F test based on a simple linear model Data is presented as Mean±SEM.

Which “reversal of leaky gut and microbial translocation to the liver” value [1] does the source give for `NC(=O)CC[C@H](N)C(=O)O` [glutamine] here?
The value was “able to reverse these effects”.

And the “endotoxemia and increased intestinal permeability” value [2]?
Its value is “reversed”.

Which “protection of the intestinal barrier by suppressing SRB and blocking production of hydrogen sulfide” value [3] does the source give for `[Mg]` [magnesium (Mg), magnesium] here?
Its value is “effective in protecting the intestinal barrier”.

Which “reversal of SRB effects (increased intestinal permeability, SRB proliferation, hydrogen sulfide production)” value [3] does the source give for `[O]=[Mg]` [magnesium oxide] here?
Its value is “could be reversed”.
